According to patent US20070093455A1, “10-substituted tetracyclines and methods of use thereof” (priority 2005, published 2007):
Converted amounts (≈) assume the structure as drawn.

Key:
S. aureus RN450 = assay: In vitro MIC assay, S. aureus RN450; type: cell-based; settings: Staphylococcus aureus, broth microdilution, 35° C., 18-24 hours
S. aureus MRSA5 = assay: In vitro MIC assay, S. aureus MRSA5; type: cell-based; settings: Staphylococcus aureus, broth microdilution, 35° C., 18-24 hours
S. aureus RN4250 = assay: In vitro MIC assay, S. aureus RN4250; type: cell-based; settings: Staphylococcus aureus, broth microdilution, 35° C., 18-24 hours
S. pneumoniae 157E = assay: In vitro MIC assay, S. pneumoniae 157E; type: cell-based; settings: Streptococcus pneumoniae, broth supplemented with lysed horse blood, 35° C., 18-24 hours
E. coli (ATCC 25922) = assay: In vitro MIC assay, E. coli (ATCC 25922); type: cell-based; settings: Escherichia coli, ATCC25922; broth microdilution, 35° C., 18-24 hours
E. coli MG 1655 DWAK = assay: In vitro MIC assay, E. coli MG 1655 DWAK; type: cell-based; settings: Escherichia coli, MG1655DWAK; broth microdilution, 35° C., 18-24 hours
Method: The following assay was used to determine the efficacy of tetracycline compounds against common bacteria. Serial dilutions of compounds were prepared in microdilution plates using a Tecan robotic workstation. Mueller Hinton broth cultures of gram negative and gram positive strains were grown or adjusted to match the turbidity of a 0.5 McFarland standard. 1:200 dilutions were made in appropriate broth (cation supplemented Mueller Hinton broth or Haemophilus test medium) to allow a final inoculum of 1×10^5 cfu. Lysed horse blood was used to supplement broth for testing S. pneumoniae. The plates were incubated at 35° C. in ambient air for 18-24 hours, read spectrophotometrically, and checked manually for evidence of bacterial growth. Serial dilutions of compounds were also added to Brucella agar supplemented with laked sheep blood for P. acnes tests. A standard inoculum was transferred to the plate using a stainless steel replicator. After 48 hours of anaerobic incubation at 35° C. plates were examined. The MIC was defined as the lowest concentration of the tetracycline compound that inhibits growth. Table 3 gives the MIC (μg/mL) of selected substituted tetracycline compounds against a variety of gram positive and gram negative bacteria.

P. aeruginosa K1033 = assay: In vitro MIC assay, P. aeruginosa K1033; type: cell-based; settings: Pseudomonas aeruginosa, broth microdilution, 35° C., 18-24 hours
[1] = system: H. influenza (ATCC 49247); assay: In vitro MIC assay, H. influenza (ATCC 49247); type: cell-based; settings: read-out: MIC H. influenza (ATCC 49247)
E. coli translation = assay: In vitro translation assay for inhibition of bacterial protein synthesis (E. coli S30 Extract System, luciferase); type: biochemical; settings: 37° C., 1 hour, luciferase luminescence
Method: As a further measure of antibacterial activity, an E. coli S30 Extract System was used to quantitate inhibition of E. coli translation by tetracycline derivatives. This system contained all required components for translation, including a nucleic acid template which, when translated, produces functional luciferase. The reactions were set up with E. coli S30 extract, amino acids, DNA template and selected tetracycline compounds at concentrations of 100, 50, 25, 10, 5, and 1 μg/ml. The reactions were incubated at 37° C. for 1 hour and analyzed by adding the reaction mix to Steady-Glo Luciferase Assay substrate (Promega, Madison Wis.). Luminescence was measured with the Wallac Victor5 plate reader and inhibition is calculated by comparing luciferase activity in experimental reactions versus controls.

COS-1 or CHO cell = assay: Mammalian cell cytotoxicity assay (Resazurin; Alamar Blue); type: cell-based; settings: COS-1 or CHO cells, 24 hour incubation
Method: To predict the in vivo risks associated with the compounds of the invention, a soluble, non-toxic redox dye (“Resazurin”; Alamar Blue) was used to assess a compound's effect on cellular metabolism. COS-1 or CHO cell suspensions were prepared, seeded into 96-well black-walled microtiter plates, and incubated overnight at 37° C., in 5% CO2 and approximately 95% humidity. On the next day, serial dilutions of test drug were prepared and transferred to cell plates. Following a 24 hour incubation period, the media/drug was aspirated, and 50 μL of resazurin was added. After a 2 hour incubation, fluorescence measurements were taken (excitation […], emission 590 nm) and toxic effects in treated versus control cells were compared based on the degree of fluorescence in each well.

[2] = system: Mouse 3T3 fibroblast cells; assay: Phototoxicity assay (neutral red); type: cell-based; settings: 3T3 cells; for phototoxicity at 30 μM, incubated in the UV light: UV light 1.6-1.8 mW/cm^2, 30 μM
Method: Mouse 3T3 fibroblast cells were harvested and plated at a concentration of 1×10^5 cells/mL. Drug dilutions were made in HBSS and added to the plates. Duplicate plates were then incubated in the dark (for controls), or under UV light (meter reading of 1.6-1.8 mW/cm^2) for 50 minutes. Cells were then washed with HBSS, fresh medium was added, and plates were then incubated overnight. The following day, neutral red was added as an indicator of cell viability and plates were incubated for an additional 3 hours. Cells were then washed with HBSS and a solution of 50% EtOH, 10% glacial acetic acid is added. After a 20 minute incubation period, plates absorbance at 535 nm were read using a Wallac Victor 5 spectrophotometer. The phototoxicity in light-treated and control cultures was then compared.

Row | SMILES | MIC (S. aureus RN450) [µg/mL] | MIC (S. aureus MRSA5) [µg/mL] | MIC (S. aureus RN4250) [µg/mL] | MIC (S. pneumoniae 157E) [µg/mL] | MIC (E. coli (ATCC 25922)) [µg/mL] | MIC (E. coli MG 1655 DWAK) [µg/mL] | MIC (P. aeruginosa K1033) [µg/mL] | MIC [1] [µg/mL] | IC20 (E. coli translation) [µM] | IC50 (E. coli translation) [µM] | cytotoxicity at 75 μg/mL (COS-1 or CHO cell) | phototoxicity at 150 μM, incubated in the dark [2] | phototoxicity at 30 μM, incubated in the UV light [2]
1 | CN(C)c1cccc2c1CC1CC3[C@@H](N(C)C)C(O)=C(C(N)=O)C(=O)[C@@]3(O)C(O)=C1C2=O (stereo partly drawn) [C] | 0 to 21 | 44 to 64 (≈ 99.7 to 145 µM) | 0 to 21 | 0 to 21 | 44 to 64 (≈ 99.7 to 145 µM) | 0 to 21 | 0 to 21 | 22 to 43 (≈ 49.8 to 97.4 µM) | > 100 | > 100 | minimal cytotoxicity | not to be appreciably phototoxic | –
2 | CN(C)c1cc(C(=O)O)cc2c1CC1CC3[C@H](N(C)C)C(O)=C(C(N)=O)C(=O)[C@@]3(O)C(O)=C1C2=O (stereo partly drawn) [D] | 44 to 64 (≈ 90.6 to 132 µM) | 44 to 64 (≈ 90.6 to 132 µM) | 44 to 64 (≈ 90.6 to 132 µM) | 44 to 64 (≈ 90.6 to 132 µM) | 44 to 64 (≈ 90.6 to 132 µM) | 44 to 64 (≈ 90.6 to 132 µM) | 44 to 64 (≈ 90.6 to 132 µM) | 44 to 64 (≈ 90.6 to 132 µM) | < 100 | < 100 | minimal cytotoxicity | not to be appreciably phototoxic | minimally phototoxic
3 | CN(C)c1cccc2c1CC1CC3CC(O)=C(C(N)=O)C(=O)[C@@]3(O)C(O)=C1C2=O (stereo partly drawn) [E] | 0 to 21 | 0 to 21 | 0 to 21 | 44 to 64 (≈ 110 to 161 µM) | 44 to 64 (≈ 110 to 161 µM) | 0 to 21 | 0 to 21 | 22 to 43 (≈ 55.2 to 108 µM) | > 100 | < 100 | – | not to be appreciably phototoxic | –
4 | NC(=O)C1=C(O)CC2CC3Cc4ccccc4C(=O)C3=C(O)[C@]2(O)C1=O (stereo partly drawn) [F] | 0 to 21 | 0 to 21 | 0 to 21 | 22 to 43 (≈ 61.9 to 121 µM) | 44 to 64 (≈ 124 to 180 µM) | 0 to 21 | 0 to 21 | 0 to 21 | < 100 | < 100 | – | not to be appreciably phototoxic | –
5 | CN(C)c1cc(C(=O)O)cc2c1CC1CC3[C@@H](N(C)C)C(O)=C(C(N)=O)C(=O)[C@@]3(O)C(O)=C1C2=O (stereo partly drawn) [G] | 44 to 64 (≈ 90.6 to 132 µM) | 44 to 64 (≈ 90.6 to 132 µM) | 44 to 64 (≈ 90.6 to 132 µM) | 44 to 64 (≈ 90.6 to 132 µM) | 44 to 64 (≈ 90.6 to 132 µM) | 44 to 64 (≈ 90.6 to 132 µM) | 44 to 64 (≈ 90.6 to 132 µM) | 44 to 64 (≈ 90.6 to 132 µM) | < 100 | < 100 | minimal cytotoxicity | not to be appreciably phototoxic | minimally phototoxic
6 | CC(=O)c1cc2c(c(N(C)C)c1)CC1CC3[C@H](N(C)C)C(O)=C(C(N)=O)C(=O)[C@@]3(O)C(O)=C1C2=O (stereo partly drawn) [H] | 44 to 64 (≈ 91 to 132 µM) | 44 to 64 (≈ 91 to 132 µM) | 44 to 64 (≈ 91 to 132 µM) | 44 to 64 (≈ 91 to 132 µM) | 44 to 64 (≈ 91 to 132 µM) | 22 to 43 (≈ 45.5 to 88.9 µM) | 22 to 43 (≈ 45.5 to 88.9 µM) | 44 to 64 (≈ 91 to 132 µM) | < 100 | < 100 | minimal cytotoxicity | not to be appreciably phototoxic | –
